Measurements from patent publication US20100227826A1, “Stable Flavonoid Solutions” (priority 2005, published 2010).

Assays:
tyrosinase = target: T1, tyrosinase (Homo sapiens, UniProt P14679); test: Tyrosinase activity in living skin explant sections (L-DOPA method of Laidlaw and Blackberg); assay type: cell-based; details: non-irradiated skin explants, topical gel 2 mg/cm^2, Day 5
T1 construct: Where tyrosinase is active, L-DOPA is oxidized, producing an observable black pigment in the melanocytes; from tissue; host or cells: living abdominal skin explants (melanocytes)
T1 sequence (P14679 19-529): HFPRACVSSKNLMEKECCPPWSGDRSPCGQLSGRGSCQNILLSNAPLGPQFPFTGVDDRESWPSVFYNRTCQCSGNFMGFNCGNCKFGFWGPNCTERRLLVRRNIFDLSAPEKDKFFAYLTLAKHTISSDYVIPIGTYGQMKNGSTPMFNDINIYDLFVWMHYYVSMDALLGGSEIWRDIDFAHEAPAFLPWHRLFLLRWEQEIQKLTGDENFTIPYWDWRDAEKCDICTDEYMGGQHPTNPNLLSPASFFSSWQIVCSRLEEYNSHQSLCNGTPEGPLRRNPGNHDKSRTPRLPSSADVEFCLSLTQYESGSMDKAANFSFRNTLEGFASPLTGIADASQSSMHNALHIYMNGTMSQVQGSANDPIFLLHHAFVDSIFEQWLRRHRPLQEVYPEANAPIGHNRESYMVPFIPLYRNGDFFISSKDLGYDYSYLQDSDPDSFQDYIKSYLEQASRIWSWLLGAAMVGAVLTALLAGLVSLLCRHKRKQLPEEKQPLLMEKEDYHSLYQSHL

[1] = tested on: melanin within the melanocytes; test: Melanin deposits in melanocytes of skin explants, Fontana-Masson silver stain; assay type: cell-based, human; details: Day 5
Procedure: (§1) Skin samples from an abdominal plastic surgery patient are placed in a specific explant survival medium BEM from Centre de Recherche Laboratoire BIO-EC (Clamart, France). Once daily, the living skin explants are irradiated with a Vilber Lourmat solar simulator RMX3W (Marne-la-Vallee, France) at a dose of 75 mJ/cm^2 within a wavelength range of 290-330 nm and a peak of 312 nm (UVB) for 80 seconds.
(§2) Five minutes following irradiation, the skin samples are treated with a topical application of 2 mg/cm^2 of a gel formulation comprising the Phytocytol™ BLM, a stable flavonoid solution according to the present invention. The gel formulation is made according to the following procedure: Three separate gels, each containing one of baicalin, luteolin and myricetin, are prepared according to the same procedure. In a main beaker, add DI Water, Germall Plus and Carbopol Ultrez-10. When Carbopol is dispersed add ¼ of the indicated amount of Neutrol TE. Add Polycast-3 and continue mixing. Add the flavonoid solution (A, B and C) until homogenous. Add the remaining Neutrol TE and mix. The resulting Baicalin Gel, Luteolin Gel and Myricetin Gel are mixed in equal parts to form a gel having a pH of 6.91 and a viscosity of 30,500 cps (LV4@12 rpm). […]

melanocyte dendricity = test: Melanocyte dendricity in skin explant cryostat sections, Anti-Melan-A immunofluorescence; assay type: cell-based, human; details: Day 5
Procedure: as §1, §2

With `OC[C@H]1O[C@@H](Oc2ccc(O)cc2)[C@H](O)[C@@H](O)[C@@H]1O` [arbutin] the “level of tyrosinase activity” value (tyrosinase) was “substantially greater compared to the arbutin-treated samples”, the melanin deposits ([1]; absence of UVB irradiation) was “low levels of melanin deposits” and the melanin deposits ([1]; after exposure to UVB irradiation) was “An increase in melanin deposits is not observed”. For the same compound, the “level of melanocyte dendricity” value (melanocyte dendricity; after UVB irradiation, skin explants) was “low level of dendricity” and the “level of melanocyte dendricity” value (melanocyte dendricity; non-UVB irradiated skin explants) was “low level of dendricity”.
